The values below come from patent publication US9249131B2, “Modulators of ATP-binding cassette transporters” (Vertex Pharmaceuticals Incorporated, priority 2003, dated 2016).

As a reminder, the EC50 is the concentration that produces a half-maximal response.

The assay concerns the target T1, ΔF508-CFTR (Homo sapiens, UniProt P13569, DEL508-508).
T1 construct: expressed in transfected cells; host or cells: NIH3T3 mouse fibroblasts stably expressing ΔF508-CFTR for the optical, whole-cell and single-channel assays; Fisher rat epithelial (FRT) cells for Ussing chamber follow-up
Briefly: Assays for ΔF508-CFTR correction and potentiator properties (membrane potential optical and electrophysiological methods). Format: cell-based. The note with it: CFTR modulation; for % Activity: % Efficacy; for EC50: tested using the above methods. From the text: Assays for Detecting and Measuring ΔF508-CFTR Correction and Potentiator Properties of Compounds
A) Membrane Potential Optical Methods for Assaying ΔF508-CFTR Modulation Properties of Compounds
The optical membrane potential assay utilized voltage-sensitive FRET sensors described by Gonzalez and Tsien (See, Gonzales, J. E. and R. Y. Tsien (1995) “Voltage sensing by fluorescence resonance energy transfer in single cells” Biophys J 69 (4): 1272-80, and Gonzalez, J. E. and R. Y. Tsien (1997) “Improved indicators of cell membrane potential that use fluorescence resonance energy transfer” Chem Biol 4 (4): 269-77) in combination with instrumentation for measuring fluorescence changes such as the Voltage/Ion Probe Reader (VIPR) (See, Gonzalez, J. E., K. Oades, et al. (1999) “Cell-based assays and instrumentation for screening ion-channel targets” Drug Discov Today 4 (9): 431-439).
These voltage sensitive assays are based on the change in fluorescence resonant energy transfer (FRET) between the membrane-soluble, voltage-sensitive dye, DiSBAC2 (3), and a fluorescent phospholipid, CC2-DMPE, which is attached to the outer leaflet of the plasma membrane and acts as a FRET donor. Changes in membrane potential (Vm) cause the negatively charged DiSBAC2(3) to redistribute across the plasma membrane and the amount of energy transfer from CC2-DMPE changes accordingly. The changes in fluorescence emission were monitored using VIPR™ II, which is an integrated liquid handler and fluorescent detector designed to conduct cell-based screens in 96- or 384-well microtiter plates.
To identify small molecules that correct the trafficking defect associated with ΔF508-CFTR; a single-addition HTS assay format was developed. The cells were incubated in serum-free medium for 16 hrs at 37° C. in the presence or absence (negative control) of test compound. As a positive control, cells plated in 384-well plates were incubated for 16 hrs at 27° C. to “temperature-correct” ΔF508-CFTR. The cells were subsequently rinsed 3× with Krebs Ringers solution and loaded with the voltage-sensitive dyes. To activate ΔF508-CFTR, […] and the CFTR potentiator, genistein ([…]), were added along with Cl^−-free medium to each well. The addition of Cl^−-free medium promoted Cl^− efflux in response to ΔF508-CFTR activation and the resulting membrane depolarization was optically monitored using the FRET-based voltage-sensor dyes.
To identify potentiators of ΔF508-CFTR, a double-addition HTS assay format was developed. During the first addition, a Cl^−-free medium with or without test compound was added to each well. After 22 sec, a second addition of Cl^−-free medium containing 2-10 µM forskolin was added to activate ΔF508-CFTR. The extracellular Cl^− concentration following both additions was 28 mM, which promoted Cl^− efflux in response to ΔF508-CFTR activation and the resulting membrane depolarization was optically monitored using the FRET-based voltage-sensor dyes.
• Bath Solution #1: (in mM) NaCl 160, KCl 4.5, CaCl2 2, MgCl2 1, HEPES 10, pH 7.4 with NaOH. • Chloride-free bath solution: Chloride salts in Bath Solution #1 are substituted with gluconate salts. • CC2-DMPE: Prepared as a 10 mM stock solution in DMSO and stored at −20° C. • DiSBAC2(3): Prepared as a 10 mM stock in DMSO and stored at −20° C. Cell Culture
NIH3T3 mouse fibroblasts stably expressing ΔF508-CFTR are used for optical measurements of membrane potential. The cells are maintained at 37° C. in 5% CO2 and 90% humidity in Dulbecco's modified Eagle's medium supplemented with 2 mM glutamine, 10% fetal bovine serum, 1×NEAA, β-ME, 1×pen/strep, and 25 mM HEPES in 175 cm^2 culture flasks. For all optical assays, the cells were seeded at 30,000/well in 384-well matrigel-coated plates and cultured for 2 hrs at 37° C. before culturing at 27° C. for 24 hrs. for the potentiator assay. For the correction assays, the cells are cultured at 27° C. or 37° C. with and without compounds for 16-24 hours.

T1 sequence (P13569 with tags, fused parts or gaps DEL508-508): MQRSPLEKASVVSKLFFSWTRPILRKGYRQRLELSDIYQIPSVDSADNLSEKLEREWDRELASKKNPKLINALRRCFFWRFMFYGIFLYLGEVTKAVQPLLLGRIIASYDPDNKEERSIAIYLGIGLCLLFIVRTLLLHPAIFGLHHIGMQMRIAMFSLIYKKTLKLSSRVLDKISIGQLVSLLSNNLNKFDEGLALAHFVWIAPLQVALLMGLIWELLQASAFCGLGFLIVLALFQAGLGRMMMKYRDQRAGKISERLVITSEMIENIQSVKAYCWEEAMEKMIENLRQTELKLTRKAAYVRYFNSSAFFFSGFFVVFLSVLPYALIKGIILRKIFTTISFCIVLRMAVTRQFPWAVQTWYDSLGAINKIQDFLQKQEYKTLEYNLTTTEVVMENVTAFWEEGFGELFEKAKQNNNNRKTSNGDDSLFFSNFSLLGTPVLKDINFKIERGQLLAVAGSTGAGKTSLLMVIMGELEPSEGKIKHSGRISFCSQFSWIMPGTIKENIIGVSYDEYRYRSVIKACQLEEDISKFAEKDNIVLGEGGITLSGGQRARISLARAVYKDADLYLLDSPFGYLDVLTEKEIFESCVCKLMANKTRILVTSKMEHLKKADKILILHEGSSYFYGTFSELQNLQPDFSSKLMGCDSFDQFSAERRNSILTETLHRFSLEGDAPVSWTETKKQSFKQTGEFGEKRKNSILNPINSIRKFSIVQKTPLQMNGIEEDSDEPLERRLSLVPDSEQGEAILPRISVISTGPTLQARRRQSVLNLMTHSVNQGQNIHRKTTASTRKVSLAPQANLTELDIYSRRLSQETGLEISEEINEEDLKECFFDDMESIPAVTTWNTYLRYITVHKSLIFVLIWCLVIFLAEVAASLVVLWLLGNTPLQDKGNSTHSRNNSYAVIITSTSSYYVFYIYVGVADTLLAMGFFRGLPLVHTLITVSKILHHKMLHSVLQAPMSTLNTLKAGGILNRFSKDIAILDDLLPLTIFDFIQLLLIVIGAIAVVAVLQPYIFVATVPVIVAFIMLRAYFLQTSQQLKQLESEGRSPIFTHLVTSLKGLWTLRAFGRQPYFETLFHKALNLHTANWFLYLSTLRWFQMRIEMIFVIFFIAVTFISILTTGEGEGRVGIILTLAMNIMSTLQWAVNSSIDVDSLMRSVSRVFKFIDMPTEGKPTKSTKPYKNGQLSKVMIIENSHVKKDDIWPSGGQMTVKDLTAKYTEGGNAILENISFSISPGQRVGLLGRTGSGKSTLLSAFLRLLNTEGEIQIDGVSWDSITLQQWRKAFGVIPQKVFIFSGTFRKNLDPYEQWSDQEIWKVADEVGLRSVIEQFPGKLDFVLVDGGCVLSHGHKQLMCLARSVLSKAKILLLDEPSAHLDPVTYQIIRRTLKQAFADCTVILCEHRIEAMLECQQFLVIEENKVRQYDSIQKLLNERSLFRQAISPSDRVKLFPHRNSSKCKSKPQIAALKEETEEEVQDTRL

In the case of `CCOc1ccc2nc(NC(=O)C3CCCCC3)sc2c1` [compound 1], the “% Activity” value is reported as “++ (“++” means between 25% to 100%)” and the EC50 is 10 to 25 µM.
The like results for `Cc1ccc(-c2csc(NC(=O)c3ccccc3)n2)c(C)c1` [compound 2] were, in that order, “+++ (“+++” means >100%)” and less than 10 µM.
The like results for `CCCCC(=O)Nc1nc(-c2cc(C)ccc2C)cs1` [compound 3] were, in that order, “++ (“++” means between 25% to 100%)” and 10 to 25 µM.
The like results for `COc1ccccc1-c1csc(NC(=O)c2ccc(C)cc2)n1` [compound 4] were, in that order, “++ (“++” means between 25% to 100%)” and less than 10 µM.
As to `COc1ccccc1-c1csc(NC(=O)c2cccc(C)c2)n1` [compound 5], the “% Activity” value is on record as “++ (“++” means between 25% to 100%)” and the EC50 is 10 to 25 µM.
The like results for `COc1ccc(C(=O)Nc2nc(-c3ccccc3OC)cs2)cc1` [compound 6] were, in that order, “++ (“++” means between 25% to 100%)” and 10 to 25 µM.
For `COc1cccc(C(=O)Nc2nc(-c3ccccc3OC)cs2)c1` [compound 7] the same measures were “+++ (“+++” means >100%)” and 10 to 25 µM.
Take `O=C(Nc1nc2c(s1)CCCC2)c1cccc(Br)c1` [compound 8]: the “% Activity” value is given as “+++ (“+++” means >100%)” and the EC50 was less than 10 µM.
Take `O=C(Nc1nc(-c2cccs2)cs1)c1cccc(Br)c1` [compound 9]: the “% Activity” value is “++ (“++” means between 25% to 100%)” and the EC50 is less than 10 µM.
For `CCc1ccc(C(=O)Nc2nc3ccccc3s2)cc1` [compound 10] the same measures were “+++ (“+++” means >100%)” and 10 to 25 µM.
For `CCCc1ccc(C(=O)Nc2nc3ccccc3s2)cc1` [compound 11] the same measures were “+++ (“+++” means >100%)” and 10 to 25 µM.
The like results for `CCCCc1ccc(C(=O)Nc2nc3ccccc3s2)cc1` [compound 12] were, in that order, “+++ (“+++” means >100%)” and less than 10 µM.
Turning to `COc1ccc(-c2ccc(C(=O)Nc3nccs3)cc2)cc1` [compound 13], the “% Activity” value is listed as “++ (“++” means between 25% to 100%)” and the concentration for a half-maximal effect (EC50) is less than 10 µM.
The like results for `COc1ccc(-c2ccc(C(=O)Nc3nc4ccccc4s3)cc2)cc1` [compound 14] were, in that order, “++ (“++” means between 25% to 100%)” and less than 10 µM.
As for `COc1ccc(-c2ccc(C(=O)Nc3nc4ccc(OC)cc4s3)cc2)cc1` [compound 15], the “% Activity” value is “++ (“++” means between 25% to 100%)” and the EC50 is less than 10 µM.
For `CCCCc1ccc(C(=O)Nc2nccs2)cc1` [compound 16] the same measures were “+++ (“+++” means >100%)” and less than 10 µM.
With `O=C(Nc1nc(-c2ccccc2)cs1)C12CC3CC(CC(C3)C1)C2` [compound 17], the “% Activity” value is “++ (“++” means between 25% to 100%)” and the EC50 is less than 10 µM.
For `O=C(Nc1ncc(-c2ccccc2)s1)c1ccccc1` [compound 18] the same measures were “++ (“++” means between 25% to 100%)” and 10 to 25 µM.
For `O=C(Nc1ncc(Cc2ccccc2Cl)s1)c1ccccc1Cl` [compound 19] the same measures were “++ (“++” means between 25% to 100%)” and 10 to 25 µM.
As for `O=C(O)CSCC(=O)Nc1nc(-c2ccccc2)c(-c2ccccc2)s1` [compound 20], the “% Activity” value was “++ (“++” means between 25% to 100%)” and the EC50 was 10 to 25 µM.
As for `O=C(Nc1nc(-c2ccccc2)cs1)c1ccccc1` [compound 21], the “% Activity” value is reported as “++ (“++” means between 25% to 100%)” and the EC50 fell in the range of 10 to 25 µM.
In the case of `O=C(Nc1ncc(Cc2cccc(Cl)c2Cl)s1)C1CC1` [compound 22], the “% Activity” value is “++ (“++” means between 25% to 100%)” and the EC50 lay in the range of 10 to 25 µM.
As to `O=C(Nc1ncc(Cc2cccc(Cl)c2)s1)c1ccccc1` [compound 23], the “% Activity” value is reported as “++ (“++” means between 25% to 100%)” and the EC50 is less than 10 µM.
